# Data as given in patent publication US10106828B2, “Cell culture medium and process for protein expression, said medium and process comprising a PAM inhibitor” (SANDOZ GMBH, priority 2010, dated 2018).
# Legend:
# CHO cells [1] = test: Influence of PBA on proline amide formation on an Fc-fusion protein expressed in CHO cells, quantified by peptide mapping; type: cell-based, Chinese hamster; conditions: for proline amide (% per heavy chain): without PBA >4%
# From the text: (§1) For antibodies, co-elution of proline amide variants with lysine variants is avoided by removal of lysine residues using carboxypeptidase B digestion prior to chromatographic separation. Additional co-elution with other basic variants, however, can result in a quantification background of several percent (e.g. 4%). Proline amide variants plus background are termed “Pseudo 1K” for eluting at the chromatographic position of the antibody variant with one C-terminal lysine residue. “Pseudo 2K” encompasses the proline variants plus background eluting at the chromatographic position of the antibody variant with two C-terminal lysine residue. The difference to the CEX method (i.e. CEX without lysine removal by CPB digestion) is indicating the amount of antibody variants with lysine residues, termed “Real 1K” and “Real 2K”. The quantification by CEX(-CPB) returns the percentage of proline amidated antibodies relative to all antibody molecules in a solution. An analytical test method which unambiguously can identify and quantify amidated proline variants is RP-HPLC (reversed-phase high-performance-liquid-chromatography) of endopeptidase (e.g. LysC, Trypsin) digested protein, so called peptide mapping, using UV (ultraviolet) or MS (mass-spec) detection. The quantification by RP-HPLC peptide mapping returns for an antibody the percentage of proline amidated heavy chains relative to all heavy chains.
# Two recombinant proteins were used to investigate the effect of PAM inhibitors on amino acid amidation/proline amid formation, i.e., a monoclonal antibody (human-mouse-chimeric IgG), and an Fc-fusion protein. CHO cells were used as expression system.
# FIG. 2: Influence of PAM inhibitor PBA on proline amide formation on an Fc-fusion protein expressed in CHO cells, as quantified by peptide mapping. Supplementing the cultures of recombinant CHO cells with various concentrations of PBA up to 100 μM decreased the amount of proline amide (% per heavy chain) in a dose-dependent effect curve from app. 2% (no PBA) to app. 0.1% (100 μM PBA).
# FIG. 3: Influence of PAM inhibitor PBA on proline amide formation on an Fc-fusion protein expressed in CHO cells, as quantified by peptide mapping.
# CHO cells [2] = test: Influence of PAM inhibitors on proline amide formation on a monoclonal antibody (chimeric IgG) expressed in CHO cells, CEX-CPB analysis / peptide mapping; type: cell-based, Chinese hamster; conditions: FIG. 1; for amount of pseudo 1K (proline amide) in CEX-CPB: monoclonal antibody (chimeric IgG), control without inhibitor app. 10%
# From the text: The amount of proline amide can be identified and quantified by various analytical methods, by distinguishing the amidated variant from the non-amidated one by physico-chemical differences such as charge, hydrophobicity or mass. The most common method is ion exchange chromatography, as the CEX-CPB method (cation exchange chromatography after digestion by carboxypeptidase B), exploiting the charge alteration due to proline amidation.
# as §1
# “Pseudo 1K” is the variant determined by CEX-CPB where one of the two heavy chains of an antibody (IgG) has a proline amide at its C-terminus. “Pseudo 2K” is the variant determined by CEX-CPB where both heavy chains of a monoclonal antibody have a proline amide at their C-termini.
# In their experiments, the inventors focused on published PAM inhibitors as potential medium components. Among the screened components are, i.e., sodium sulfite, tiopronin, captopril, EDTA, ammonium sulfite, L-histidine, D-histidine, ammonium meta thiomolybdate, L-carnosine, penicillamine, 4-phenyl-3 butenoic acid (PBA). […]
# FIG. 1: Influence of PAM inhibitors on proline amide (PA) formation, quantified as ‘pseudo 1K’ in CEX-CPB analysis, on a monoclonal antibody (chimeric IgG) expressed in CHO cells. […]
structure (smiles),measurement,setting,value
"O=C(O)CC=Cc1ccccc1 [PBA, 4-phenyl-3-butenoic acid]",amount of proline amide (% per heavy chain),"CHO cells [1]; FIG. 2, 100 μM PBA, no PBA app. 2%",~0.1%
same,effect curve of proline amide decrease,"CHO cells [1]; FIG. 2, various concentrations up to 100 μM",dose-dependent
same,proline amide (% per heavy chain),"CHO cells [1]; FIG. 3, 50 μM PBA",< 1%
same,proline amide (% per heavy chain),"CHO cells [1]; FIG. 3, 100 μM PBA",< 0.5%
same,amount of pseudo 1K (proline amide) in CEX-CPB,CHO cells [2]; 10 μM in cell culture medium,~8%
same,amount of pseudo 1K (proline amide) in CEX-CPB,CHO cells [2]; 100 μM in cell culture medium,~5%
same,"proline amide per heavy chain, peptide mapping","CHO cells [2]; corresponds to 5% pseudo 1K in CEX-CPB (100 μM), monoclonal antibody",0-2%
same,effect on proline amide formation compared with other screened PAM inhibitors,CHO cells [2]; supplemented to the cell culture,strongest effect
